Key:
[1] = Displacement of [3H]KAIN from kainate receptor in Sprague-Dawley rat brain synaptic membrane after 60 mins by scintillation counting
[2] = Displacement of [3H]AMPA from AMPA receptor in Sprague-Dawley rat brain synaptic membrane after 30 mins by scintillation counting
Glutamate NMDA receptor [3] = assay: Displacement of [3H]CGP 39653 from NMDA receptor in Sprague-Dawley rat brain synaptic membrane after 60 mins by scintillation counting
Glutamate NMDA receptor [4] = assay: Displacement of [3H]CPP from NMDA receptor in Sprague-Dawley rat brain synaptic membrane after 60 mins by scintillation counting

| Structure (SMILES) | Ki [1] | Ki [2] | Ki (Glutamate NMDA receptor [3]) | Ki (Glutamate NMDA receptor [4]) |
| --- | --- | --- | --- | --- |
| C[C@H]1C(C(=O)O)=NO[C@H]1C[C@@H](N)C(=O)O (racemic) | > 100 µM | 4.1 µM | 3 µM |  |
| C[C@@H]1ON=C(C(=O)O)[C@@H]1C[C@H](N)C(=O)O (racemic) | > 100 µM | > 100 µM | 18 µM |  |
| C[C@H]1C(C(=O)O)=NO[C@H]1C[C@H](N)C(=O)O (racemic) | 56 µM | 31 µM | 5.1 µM |  |
| C[C@@H]1ON=C(C(=O)O)[C@@H]1C[C@@H](N)C(=O)O (racemic) | > 100 µM | > 100 µM | 60 µM |  |
| N[C@@H](C[C@H]1CC(C(=O)O)=NO1)C(=O)O (racemic) | > 100 µM | > 100 µM | 0.96 µM |  |
| N[C@@]1(C(=O)O)C[C@@H]2ON=C(C(=O)O)[C@@H]2C1 (racemic) | > 100 µM | > 100 µM |  |  |
| N[C@H](C[C@H]1CC(C(=O)O)=NO1)C(=O)O (racemic) | > 100 µM | > 100 µM | 0.21 µM |  |
| Cc1onc(C(=O)O)c1CC(N)C(=O)O (racemic) | 6.3 µM | 0.02 µM |  | > 100 µM |

Reference: ChEMBL document CHEMBL1667798, “Synthesis of new isoxazoline-based acidic amino acids and investigation of their affinity and selectivity profile at ionotropic glutamate receptors” (Eur J Med Chem, 2011)
